# From patent US7662814B2, “4-aminothieno[2,3-d]pyrimidine-6-carbonitrile derivatives as PDE7 inhibitors” (Laboratorios Almirall, S.A., priority 2003, dated 2010)
row,SMILES,melting point [°C]
1,"CCN(C)c1nc(-c2ccncc2)nc2sc(C#N)c(C)c12 [Example 38, 4-[Ethyl(methyl)amino]-5-methyl-2-pyridin-4-ylthieno[2,3-d]pyrimidine-6-carbonitrile]",162 to 164
2,"CCN(C)c1nc(-c2ccc(OC)c(OC)c2)nc2sc(C#N)c(C)c12 [Example 26, 2-(3,4-Dimethoxyphenyl)-4-[ethyl(methyl)amino]-5-methylthieno[2,3-d]pyrimidine-6-carbonitrile]",133 to 135
3,"Cc1c(C#N)sc2nc(-c3ccccc3)nc(N3CCN(C)CC3)c12 [Example 50, 5-Methyl-4-(4-methyl-piperazin-1-yl)-2-phenyl-thieno[2,3-d-]pyrimidine-6-carbonitrile]",223 to 225
4,CCNc1nc(-c2cc(OC)cc(OC)c2)nc2sc(C#N)c(C)c12 [Example 134],207 to 208
5,"C=CCN(C)c1nc(Cc2ccc(OC)c(OC)c2)nc2sc(C#N)c(C)c12 [Example 102, 4-[Allyl(methyl)amino]-2-(3,4-dimethoxybenzyl)-5-methylthieno[2,3-d]pyrimidine-6-carbonitrile]",98 to 100
6,"Cc1c(C#N)sc2nc(-c3ccncc3)nc(N3CCOCC3)c12 [Example 41, 5-Methyl-4-morpholin-4-yl-2-pyridin-4-ylthieno[2,3-d]pyrimidine-6-carbonitrile]",> 250
7,"COc1cc(-c2nc(NC(C)C)c3c(C)c(C#N)sc3n2)cc(OC)c1OC [Example 70, 4-(Isopropylamino)-5-methyl-2-(3,4,5-trimethoxyphenyl)thieno[2,3-d]pyrimidine-6-carbonitrile]",191 to 193
8,"Cc1c(C#N)sc2nc(-c3ccccc3)nc(N3CCNCC3)c12 [Example 8, 5-Methyl-2-phenyl-4-piperazin-1-ylthieno[2,3-d]pyrimidine-6-carbonitrile]",251 to 253
9,"CCN(CC)c1nc(-c2ccc(OC)cc2)nc2sc(C#N)c(C)c12 [Example 10, 4-(Diethylamino)-2-(4-methoxyphenyl)-5-methylthieno[2,3-d]pyrimidine-6-carbonitrile]",154 to 156
10,"COc1ccc(-c2nc(N3CCN(C)CC3)c3c(C)c(C#N)sc3n2)cc1 [Example 9, 2-(4-Methoxyphenyl)-5-methyl-4-(4-methylpiperazin-1-yl)thieno[2,3-d]pyrimidine-6-carbonitrile]",> 250
11,"COc1cc(Cc2nc(NC(C)(C)C)c3c(C)c(C#N)sc3n2)cc(OC)c1OC [Example 116, 4-(tert-Butylamino)-5-methyl-2-(3,4,5-trimethoxybenzyl)thieno[2,3-d]pyrimidine-6-carbonitrile]",146 to 148
12,"COc1cc(-c2nc(N3CCOCC3)c3c(C)c(C#N)sc3n2)cc(OC)c1OC [Example 51, 5-Methyl-4-morpholin-4-yl-2-(3,4,5-trimethoxy-phenyl)-thieno[2,3-d]pyrimidine-6-carbonitrile]",> 250
13,"C=CCN(C)c1nc(-c2cc(OC)c(OC)c(OC)c2)nc2sc(C#N)c(C)c12 [Example 78, 4-[Allyl(methyl)amino]-5-methyl-2-(3,4,5-trimethoxyphenyl)thieno[2,3-d]pyrimidine-6-carbonitrile]",162 to 164
14,"CCN(CC)c1nc(-c2ccc3c(c2)OCO3)nc2sc(C#N)c(C)c12 [Example 36, 2-(1,3-Benzodioxol-5-yl)-4-(diethylamino)-5-methylthieno[2,3-d]pyrimidine-6-carbonitrile]",199 to 201
15,"C#CCN(C)c1nc(-c2ccc(OC)cc2)nc2sc(C#N)c(C)c12 [Example 24, 2-(4-Methoxyphenyl)-5-methyl-4-[methyl(prop-2-ynyl)amino]thieno[2,3-d]pyrimidine-6-carbonitrile]",160 to 171
16,"Cc1c(C#N)sc2nc(-c3ccncc3)nc(N(C)CCO)c12 [Example 42, 4-[(2-Hydroxyethyl)(methyl)amino]-5-methyl-2-pyridin-4-ylthieno[2,3-d]pyrimidine-6-carbonitrile]",194 to 195
17,"COc1ccc(-c2nc(N(C)C)c3c(C)c(C#N)sc3n2)cc1OC [Example 46, 2-(3,4-Dimethoxyphenyl)-4-(dimethylamino)-5-methylthieno[2,3-d]pyrimidine-6-carbonitrile]",198 to 200
18,"Cc1c(C#N)sc2nc(-c3ccccc3)nc(N3CCCCC3)c12 [Example 4, 5-Methyl-2-phenyl-4-piperidin-1-ylthieno[2,3-d]pyrimidine-6-carbonitrile]",142 to 144
19,"CNc1nc(Cc2cc(OC)c(OC)c(OC)c2)nc2sc(C#N)c(C)c12 [Example 110, 5-Methyl-4-(methylamino)-2-(3,4,5-trimethoxybenzyl)thieno[2,3-d]pyrimidine-6-carbonitrile]",194 to 195
20,"Cc1ccc(-c2nc(N3CCN(C)CC3)c3c(C)c(C#N)sc3n2)cc1 [Example 27, 5-Methyl-2-(4-methylphenyl)-4-(4-methylpiperazin-1-yl)thieno[2,3-d]pyrimidine-6-carbonitrile]",207 to 209
21,"CCNc1nc(Cc2ccc(OC)c(OC)c2)nc2sc(C#N)c(C)c12 [Example 95, 2-(3,4-Dimethoxybenzyl)-4-(ethylamino)-5-methylthieno[2,3-d]pyrimidine-6-carbonitrile]",125 to 126

row,SMILES,melting point [°C]
1,"COc1cc(-c2nc(NCCC(=O)O)c3c(C)c(C#N)sc3n2)cc(OC)c1OC [Example 87, N-[6-Cyano-5-methyl-2-(3,4,5-trimethoxyphenyl)thieno[2,3-d]pyrimidin-4-yl]-beta-alanine]",222 to 225
2,"CCN(C)c1nc(-c2ccc(OC)cc2)nc2sc(C#N)c(C)c12 [Example 17, 4-[Ethyl(methyl)amino]-2-(4-methoxyphenyl)-5-methylthieno[2,3-d]pyrimidine-6-carbonitrile]",122 to 123
3,"CCN1CCN(c2nc(-c3ccccc3)nc3sc(C#N)c(C)c23)CC1 [Example 1, 4-(4-Ethylpiperazin-1-yl)-5-methyl-2-phenylthieno[2,3-d]pyrimidine-6-carbonitrile]",178 to 179
4,"CCN(CC)c1nc(-c2ccncc2)nc2sc(C#N)c(C)c12 [Example 45, 4-(Diethylamino)-5-methyl-2-pyridin-4-ylthieno[2,3-d]pyrimidine-6-carbonitrile]",169 to 171
5,"COc1cc(-c2nc(NCC(C)C)c3c(C)c(C#N)sc3n2)cc(OC)c1OC [Example 72, 4-(Isobutylamino)-5-methyl-2-(3,4,5-trimethoxyphenyl)thieno[2,3-d]pyrimidine-6-carbonitrile]",182 to 184
6,"Cc1ccc(-c2nc(N3CCOCC3)c3c(C)c(C#N)sc3n2)cc1 [Example 32, 5-Methyl-2-(4-methylphenyl)-4-morpholin-4-ylthieno[2,3-d]pyrimidine-6-carbonitrile]",206 to 207
7,"COc1ccc(-c2nc(N(C)CCO)c3c(C)c(C#N)sc3n2)cc1 [Example 25, 4-[(2-Hydroxyethyl)(methyl)amino]-2-(4-methoxyphenyl)-5-methylthieno[2,3-d]pyrimidine-6-carbonitrile]",144 to 146
8,"CCC(C)Nc1nc(-c2cc(OC)c(OC)c(OC)c2)nc2sc(C#N)c(C)c12 (centres unmarked) [Example 71, 4-(sec-Butylamino)-5-methyl-2-(3,4,5-trimethoxyphenyl)thieno[2,3-d]pyrimidine-6-carbonitrile]",91 to 93
9,"COc1ccc(-c2nc(N3CCCCC3)c3c(C)c(C#N)sc3n2)cc1 [Example 6, 2-(4-Methoxyphenyl)-5-methyl-4-piperidin-1-ylthieno[2,3-d]pyrimidine-6-carbonitrile]",202 to 204
10,"CCCCN(CCCC)c1nc(-c2ccc(OC)cc2)nc2sc(C#N)c(C)c12 [Example 14, 4-(Dibutylamino)-2-(4-methoxyphenyl)-5-methylthieno[2,3-d]pyrimidine-6-carbonitrile]",96 to 98
11,"COc1ccc(Cc2nc(NCCO)c3c(C)c(C#N)sc3n2)cc1OC [Example 104, 2-(3,4-Dimethoxybenzyl)-4-[(2-hydroxyethyl)amino]-5-methylthieno[2,3-d]pyrimidine-6-carbonitrile]",149 to 151
12,"CCC(C)Nc1nc(Cc2cc(OC)c(OC)c(OC)c2)nc2sc(C#N)c(C)c12 (centres unmarked) [Example 114, 4-(sec-Butylamino)-5-methyl-2-(3,4,5-trimethoxybenzyl)thieno[2,3-d]pyrimidine-6-carbonitrile]",134 to 137
13,"CCN(C)c1nc(-c2cc(OC)c(OC)c(OC)c2)nc2sc(C#N)c(C)c12 [Example 39, 4-[Ethyl(methyl)amino]-5-methyl-2-(3,4,5-trimethoxyphenyl)thieno[2,3-d]pyrimidine-6-carbonitrile]",163 to 164
14,"Cc1c(C#N)sc2nc(-c3ccc4c(c3)OCO4)nc(N(C)CCO)c12 [Example 43, 2-(1,3-Benzodioxol-5-yl)-4-[(2-hydroxyethyl)(methyl)amino]-5-methylthieno[2,3-d]pyrimidine-6-carbonitrile]",195 to 197
15,Cc1c(C#N)sc2nc(-c3ccc4c(c3)OCO4)nc(N3CCN(C)CC3)c12 [Example 34],196 to 197
16,"COc1cc(Cc2nc(NC(C)C)c3c(C)c(C#N)sc3n2)cc(OC)c1OC [Example 113, 4-(Isopropylamino)-5-methyl-2-(3,4,5-trimethoxybenzyl)thieno[2,3-d]pyrimidine-6-carbonitrile]",143 to 147
17,"COc1ccc(-c2nc(N3CCNCC3)c3c(C)c(C#N)sc3n2)cc1 [Example 12, 2-(4-Methoxyphenyl)-5-methyl-4-piperazin-1-ylthieno[2,3-d]pyrimidine-6-carbonitrile]",210 to 212
18,"CCN(CC)c1nc(Cc2ccc(OC)c(OC)c2)nc2sc(C#N)c(C)c12 [Example 101, 4-(Diethylamino)-2-(3,4-dimethoxybenzyl)-5-methylthieno[2,3-d]pyrimidine-6-carbonitrile]",107 to 109
19,CCN(C)c1nc(-c2ccc(C(=O)OC)cc2)nc2sc(C#N)c(C)c12 [Example 57],125 to 128
20,"Cc1c(C#N)sc2nc(CCc3ccccc3)nc(NC3CCC3)c12 [Example 128, 4-(Cyclobutylamino)-5-methyl-2-(2-phenylethyl)thieno[2,3-d]pyrimidine-6-carbonitrile]",153 to 155
